Results on three compounds are retold here after US20090163406A1, “COMPOSITIONS AND METHODS FOR DIAGNOSING AND TREATING BRAIN CANCER AND IDENTIFYING NEURAL STEM CELLS” (THE REGENTS OF THE UNIVERSITY OF CALIFORNIA, priority 2004, published 2009).

Data set [1] relates to dividing GFAP positive cells. Nature of the data set: Ganciclovir ablation in GFAP promoter HSV-TK transgenic mice, SEZ immunohistochemistry. In kind it is in vivo, mouse. Particulars: 21 days ganciclovir, vs non-transgenic controls. The text has this: PBK/TOPK positive cells are mitotically active progenitors in vivo: The expression pattern in vitro as a mitotically active kinase, coupled with in vivo data, provided evidence that PBK/TOPK was expressed in several mitotically active progenitor cell populations in the central nervous system, but not in quiescent, slower cycling putative stem cells. To more conclusively establish PBK/TOPK expression in stem and progenitor cells in vivo, we examined PBK/TOPK in transgenic mice expressing the herpes simplex virus thymidine kinase gene (HSV-TK) under control of the GFAP promoter (see, e.g., Bush, T. G., et al., Neuron (1999) 23:297-308; Garcia, supra (2004)). Since HSV-TK phosphorylates the drug ganciclovir and phosphorylated ganciclovir kills cells at mitosis, when these mice are given ganciclovir, all dividing GFAP positive cells are killed. […] Three transgenic mice were treated for 21 days with ganciclovir followed by BrdU injections for two days, and then processed for immunohistochemistry. […] This finding provided direct in vivo evidence that PBK/TOPK positive cells arise from proliferating GFAP positive cells, consistent with PBK/TOPK being expressed exclusively by proliferating progenitor cells in the adult brain. […]
Cell counts: For immunocytochemistry, all cells in 10 random 40× fields were counted. […]

For data set [2], the system named is Daoy cells. As to the kind of experiment: Daoy medulloblastoma cell growth (total cell number). In kind it is cell-based, human. Particulars: cyclopamine alone or combined with MELK siRNA.
Description: Transient Transfection. […] For transfection of plasmid vectors, the cells were incubated with reagents for 6 hours with the primary progenitor cells, and for 24 hours with N2a cells. […] Incubation with siRNA complex was 6 hours with primary cells and 24 hours with cell lines.
We then examined whether the effect of MELK siRNA is for cell survival or cell proliferation.
Propium iodide-labeled tumor populations were measured for cell death assay after treatment of siRNA for two days (e).
The subject of data set [3] is neural progenitors cultured from E12 mouse telencephalic germinal zones. As to the kind of experiment: Cell number and cell cycle of attached E12 telencephalic neural progenitors in bFGF.
Data set [4] deals with primary cerebellar granule cells precursors (CGPs). Nature of the data set: Cell cycle analysis and cell counts in cultured cerebellar granule cell precursors. In kind it is cell-based, mouse. Conditions: for fraction of cells in S-phase: CGP with mitogen, 50 uM, 24 hours, flow cytometric DNA content. As to the method:
FIG. 9F: described below. […] Yellow circle indicates normally cycling cells.
Culture of Cerebellar Granule Cell Precursors: Cerebella were harvested from P6-P8 CD1 mouse pups and digested in Papain with DNase, and dissociated in PBS BSA with fire polished pipettes followed by a cell strainer. Granule cell precursors were then separated on a 35%/65% percoll step gradient at 1500 g for 12 minutes as previously described (Wechsler-Reya, supra (1999)). Cells were either transfected at this point or plated at 250K cells/well onto Poly-L-Lysine coated glass coverslips in 24 well plates in 330 uls of Neurobasal Media containing 2% B27 supplement, 1 mM sodium pyruvate, 2 mM glutamine, and 1% penicillin/streptomycin, supplemented with 2.5 ug/ml mouse recombinant Sonic Hedge Hog (R&D systems 461-5H-025) as noted in the text, above.
Cell counts: For immunocytochemistry, all cells in 10 random 40× fields were counted. For the stem cell ablation experiments we used stereo investigator to count all PBK/TOPK cells in the SEZ ventral to the anterior horn at the level of the anterior commissure bilaterally in 3 replicate animals. T-tests were performed in Microsoft Excel.

Where [5] appears, read: CGP, twenty-four hours of P38 inhibition.

“Also recorded” adds a separate entry of the source.

With `Nc1nc(O)c2ncn(COC(CO)CO)c2n1` [ganciclovir], the “Dcx positive cells in SEZ” value in data set [1] was “complete ablation”.

In the case of `CC1=C2C[C@H]3[C@@H](CC=C4C[C@@H](O)CC[C@@]43C)[C@@H]2CC[C@]12O[C@@H]1C[C@H](C)CN[C@H]1[C@H]2C` [cyclopamine], in data set [2], the “Daoy cell growth / proliferation with shh-Gli1 pathway inhibitor” value is recorded as “inhibition of cell growth”.

As to `C[S+]([O-])c1ccc(-c2nc(-c3ccncc3)c(-c3ccc(F)cc3)[nH]2)cc1` (centres unmarked) [SB203580], in data set [3] (in the presence of bFGF), the “cycling cells assessed by flow cytometry” value was “decrease in cycling cells”. The DNA aneuploidy entry in data set [3] (long exposures or high doses, 48 hours at highest dose) is reported as “resulted in DNA aneuploidy; also recorded: accumulation of DNA-aneuploid cells”. Besides, in data set [3] (varying doses, in the presence of bFGF), the cell number result is recorded as “dose dependant decrease in proliferation; also recorded: dose dependant decrease in cell number”. Further, the “fraction of cells in S-phase” value in data set [4] is given as “reduces fraction of S-Phase cells; also recorded: dramatic decrease in the fraction of cells in S-phase”; in data set [4] (listed as sb203580), “significant decrease in the number of cells re-entering S-phase”. Also, the “cell number in the absence of mitogen” value in data set [4] (CGP without mitogen treatment) was “no impact on cell number”. In data set [4] (setting [5]), the “number of NeuN positive cells” value is reported as “without significantly impacting; also recorded: without any impact”. For the same compound, in data set [4] (setting [5]), the “number of PBK/TOPK positive cells” value is on record as “reduces PBK/TOPK positive cells; also recorded: reduction in the number of the PBK/TOPK positive cells”. Also, the “total number of cells” value in data set [4] (proliferating neuronal progenitors) is on record as “decrease in the total number of cells”.
